Test results from patent publication US11274314B2, “Herbicide safener combinations for acetyl co-enzyme a carboxylase herbicide resistant plants” (priority 2016, dated 2022).

Assays:
[1] = tested on: quizalofop tolerant mutant wheat accessions and non-mutant check; experiment: Cross-resistance study within the ACCase herbicide mode of action, plant survival; assay type: in vivo, Triticum aestivum L.; conditions: for survival: 28 DAT, clethodim 65, sethoxydim 264, fluazifop 361 g ai ha^−1, clethodim + 10.5 g ai ha^−1 quizalofop
Procedure: (§1) Dose response. A dose response study was completed with 11, 23, 46, 92, and 184 g quizalofop ha^−1. Seven DAT the tops of plants were cut off above the newest above-ground growing point. Binomial evaluation of plant survival was performed 28 DAT. Differences were uncovered in the whole plant sensitivity to increasing application rates of quizalofop. […] Resistant to susceptible ratios for this experiment ranged from 1.6 to 7.5 based on survival/death of the plants. Cross-resistance. A cross-resistance study was conducted within the ACCase herbicide mode of action using herbicides normally lethal to wheat. Clethodim, sethoxydim, and fluazifop were used at rates of 65, 264, and 361 g ai ha^−1, plus a treatment of clethodim and 10.5 g ai ha^−1 quizalofop. Seven DAT the tops of plants were cut off above the newest above-ground growing point. Binomial evaluation of plant survival was performed 28 DAT. Tolerance of quizalofop mutants to clethodim and sethoxydim was low (Table 1). The presence of any cross tolerance presents evidence that stacking resistant ACCase copies into a single plant could lead to resistance to additional herbicides. At this stage only a third of the total ACCase in the plant would have a mutation and contain tolerance to ACCase inhibitors if the mutation is target-site-based. DNA sequencing. DNA was collected from 26 quizalofop-tolerant phenotypes. Genome-specific primers were developed to amplify sequences from the A, B, and D ancestral wheat genomes. Sequenced results were compared to previously cloned non-mutant wheat sequences to determine any nucleotide substitutions present. […] This mutation on the A genome was found in eight accessions, on the B genome in nine accessions, and on the D genome in nine accessions. No accession had more than one of these SNPs. The mutation was a C to T substitution resulting in an alanine to valine change (FIG. 7). Each accession with higher survival than the background contained one of these SNPs. Based on the chromatograph patterns, the majority these SNPs are also believed to be homozygous in the plant. ACCase enzyme characterization. An in-vitro enzyme assay was conducted to observe ACCase in conjunction with quizalofop directly to determine if the presence of ACCase mutations decreases the ability of herbicides to inhibit ACCase activity. Four quizalofop concentrations of 0.1, 1, 10, and 100 μM were included in the assay along with a non-treated treatment. The experiment included four accessions which included a representative from the three mutations detected and non-mutagenized wheat. […] Calculated at the 125 level, the resistant to susceptible value for the A genome was 4.57, the B genome was 3.57 and the D genome was 10.86.

[2] = tested on: single copy varieties AF28-A, AF26-B, AF10-D; experiment: Safener potentiation of ACCase herbicide resistance in single copy wheat varieties; assay type: in vivo; conditions: safener combined with ACCase herbicide; single copy varieties vs multiple copy or multiple genome lines
[3] = tested on: single-gene (AF28, AF26, AF10) and two-gene (AB17, AB157, BD4, AD91) wheat lines; experiment: Field crop safety trial with and without safener
Procedure: During the 2014-2015 growing season, a field crop safety trial was performed to assess these lines for relative levels of resistance and performance under two application timings, applied with and without the safener cloquintocet-mexyl.
Determine relative levels of resistance between two-gene lines and single-gene lines. Determine which application timing (early or late spring) provided the highest crop safety.
One quizalofop susceptible line (Hatcher), four two-gene breeding lines (CO14A006 [AB17], CO14A041[AB157], CO14A075 [BD4], CO14A065 [AD91) and three one-gene parent lines (AF28, AF26, and AF10) were compared. A split-split plot design was used in which quizalofop p-ethyl was applied at 92.5 g ai ha^−1 with 1% MSO corresponding to the highest likely label application rate on March 31st at the tillering growth stage, and on May 2nd at the jointing growth stage. Cloquintocet safener (10 g ai/ha) was included in the split-split plot design. In the analysis, visual injury ratings and height were assessed one month before harvest, and grain yield in grams per plot was also used as a response factor. The SAS statistical package and proc mixed were used for analysis with a tukey-adjusted p-value of 0.05 as the cutoff value. The analysis was sliced by the cloquintocet factor, and comparisons of timing were made within lines.

[4] = tested on: ACCase, B genome mutation (alanine to valine at position 2004); experiment: In-vitro ACCase enzyme assay, B genome SNP accession; assay type: biochemical, wheat
Procedure: (§2) Dose response. A dose response study was completed with 11, 23, 46, 92, and 184 g quizalofop ha^−1. Seven DAT the tops of plants were cut off above the newest above-ground growing point. Binomial evaluation of plant survival was performed 28 DAT. Differences were uncovered in the whole plant sensitivity to increasing application rates of quizalofop. […] Resistant to susceptible ratios for this experiment ranged from 1.6 to 7.5 based on survival/death of the plants. Cross-resistance. A cross-resistance study was conducted within the ACCase herbicide mode of action using herbicides normally lethal to wheat. Clethodim, sethoxydim, and fluazifop were used at rates of 65, 264, and 361 g ai ha^−1, plus a treatment of clethodim and 10.5 g ai ha^−1 quizalofop. Seven DAT the tops of plants were cut off above the newest above-ground growing point. Binomial evaluation of plant survival was performed 28 DAT. Tolerance of quizalofop mutants to clethodim and sethoxydim was low (Table 1). […] The experiment included four accessions which included a representative from the three mutations detected and non-mutagenized wheat. […] Calculated at the 125 level, the resistant to susceptible value for the A genome was 4.57, the B genome was 3.57 and the D genome was 10.86.

[5] = tested on: ACCase of non-mutagenized winter wheat; experiment: In-vitro ACCase enzyme assay, non-mutagenized wheat; assay type: biochemical; conditions: non-mutagenized winter wheat vs mutant accessions; 0.1-100 μM
Procedure: as §2

[6] = tested on: quizalofop-tolerant winter wheat accessions vs non-mutant Hatcher wheat; experiment: Visual evaluation of quizalofop injury on quizalofop-tolerant accessions; assay type: in vivo, Triticum aestivum L.; conditions: nearly all of 18 quizalofop-tolerant accessions; 21.05 g ai ha^−1; 28 DAT; compared with non-mutant Hatcher
Procedure: Plants were screened for visual injury, whole-plant quizalofop tolerance differences, cross-tolerance, and evaluated genotypically and enzymatically.
Visual evaluation. 18 quizalofop-tolerant accessions were treated with 21.05 g ai ha^−1 quizalofop, a discriminating dose based on previous studies. Plants were evaluated 28 days after treatment (DAT) for visible injury to quizalofop on a scale of 0 to 100%, with 0 being no injury and 100 being complete desiccation. […] The accessions had few completely dead plants, with the exception of the one accession not different than the background.

[7] = tested on: ACCase, A genome mutation (alanine to valine at position 2004); experiment: In-vitro ACCase enzyme assay, A genome SNP accession; assay type: biochemical, wheat
Procedure: as §2

[8] = tested on: ACCase, D genome mutation (alanine to valine at position 2004); experiment: In-vitro ACCase enzyme assay, D genome SNP accession; assay type: biochemical, wheat; conditions: for ACCase tolerance to quizalofop vs background: D genome SNP
Procedure: as §1, with “The mutation was a C to T substitution resulting in an alanine to valine change (FIG. 7). Each accession with higher survival than the background contained one of these SNPs. Based on the chromatograph patterns, the majority these SNPs are also believed to be homozygous in the plant. ACCase enzyme characterization. An in-vitro enzyme assay was conducted to observe ACCase in conjunction with quizalofop directly to determine if the presence of ACCase mutations decreases the ability of herbicides to inhibit ACCase activity. Four quizalofop concentrations of 0.1, 1, 10, and 100 μM were included in the assay along with a non-treated treatment.” left out

Row | Compound | survival ([1]; Accession 0 (non-mutant check)) | survival ([1]; Accession 1) | survival ([1]; Accession 2) | survival ([1]; Accession 3) | survival ([1]; Accession 4) | survival ([1]; Accession 5) | survival ([1]; Accession 6) | survival ([1]; Accession 7) | survival ([1]; Accession 8) | survival ([1]; Accession 9) | survival ([1]; Accession 10) | survival ([1]; Accession 11) | survival ([1]; Accession 12) | survival ([1]; Accession 13) | survival ([1]; Accession 14) | survival ([1]; Accession 15) | survival ([1]; Accession 16) | survival ([1]; Accession 17) | other results
1 | CCSC(C)CC1CC(=O)C(/C(CC)=N/OC/C=C/Cl)=C(O)C1 (centres unmarked) [Clethodim, (E,E)-(.+−.)-2-[1-[[(3-chloro-2-propenyl)oxy]imino]propyl]-5-[2-(ethylth-io)propyl]-3-hydroxy-2-cyclohexen-1-one] | 0% | 10% | 0% | 0% | 0% | 0% | 0% | 0% | 25% | 17% | 0% | 0% | 17% | 0% | 0% | 0% | 0% | 0% | –
2 | CC(Oc1ccc(Oc2ccc(C(F)(F)F)cn2)cc1)C(=O)O (centres unmarked) [Fluazifop, (.+−.)-2-[4-[[5-(trifluoromethyl)-2-pyridinyl]oxy]phenoxy]propanoic acid] | 0% | 0% | 0% | 0% | 0% | 0% | 0% | 0% | 0% | 0% | 0% | 0% | 0% | 0% | 0% | 0% | 0% | 0% | –
3 | CCCC(=NOCC)C1=C(O)CC(CC(C)SCC)CC1=O (centres unmarked) [Sethoxydin, 2-[1-(ethoxyimino)-butyl]-5-[2-(ethylthio)propyl]-3-hydroxy-2-cylohexen-1-one] | 0% | 0% | 0% | 0% | 0% | 0% | 0% | 0% | 0% | 0% | 0% | 8% | 8% | 0% | 0% | 0% | 0% | 0% | Tolerance of quizalofop mutants ([1]; summary of Table 1): low
4 | O=C(O)COc1ccc(Cl)c2cccnc12 [cloquintocet acid] | – | – | – | – | – | – | – | – | – | – | – | – | – | – | – | – | – | – | potentiation of resistance to acetyl-CoA carboxylase herbicides [2]: just as effectively resistance as the multiple copy lines
5 | CCOC(=O)[C@@H](C)Oc1ccc(Oc2cnc3cc(Cl)ccc3n2)cc1 [quizalofop p-ethyl] | – | – | – | – | – | – | – | – | – | – | – | – | – | – | – | – | – | – | crop injury (reduced height, reduced yield, or increased injury rating) ([3]; May (jointing) compared to March (tillering) treatment timing): consistently higher crop injury; crop safety ([3]; all two-gene lines, 92.5 g ai ha^−1, no safener, vs single-gene lines): much higher levels of crop safety; crop injury compared to the untreated control ([3]; single-gene line AF28, 92.5 g ai ha^−1, no safener): only showed injury with the May treatment timing; crop injury compared to the untreated control ([3]; single-gene lines, 92.5 g ai ha^−1 with 1% MSO, no safener, March and May timings): significant injury; crop injury ([3]; two-gene line AD91, 92.5 g ai ha^−1, with or without safener, March or May): no crop injury for any treatment combination; crop injury ([3]; two-gene lines AB157 and AB17, 92.5 g ai ha^−1, no safener): crop injury in the May treatment timing
6 | CC(Oc1ccc(Oc2cnc3cc(Cl)ccc3n2)cc1)C(=O)O (centres unmarked) [quizalofop, (.+−.)-2-[4-[(6-chloro-2-quinoxalinyl)-oxy]phenoxy]propanoic acid] | – | – | – | – | – | – | – | – | – | – | – | – | – | – | – | – | – | – | ACCase tolerance to quizalofop vs background ([4]; B genome SNP, 10 μM quizalofop): higher than background levels of tolerance; resistant to susceptible value, calculated at the 125 level ([4]; B genome, vs non-mutagenized wheat): 3.57; ACCase sensitivity to quizalofop [5]: greater sensitivity; visible injury to quizalofop on a scale of 0 to 100% [6]: more tolerant to quizalofop than non-mutant Hatcher wheat; ACCase tolerance to quizalofop vs background ([7]; A genome SNP, 100 μM quizalofop): higher than background tolerance; resistant to susceptible value, calculated at the 125 level ([7]; A genome, vs non-mutagenized wheat): 4.57; ACCase tolerance to quizalofop vs background ([8]; 10 μM quizalofop): higher than background levels of tolerance; ACCase tolerance to quizalofop vs background ([8]; 100 μM quizalofop): higher than background tolerance; resistant to susceptible value, calculated at the 125 level ([8]; D genome, vs non-mutagenized wheat): 10.86
